From patent publication US6617140B2
Entries after “also recorded” stand apart in the source; their conditions may differ. Where two headings read alike, the source gives them in different places.

What was measured:
L-proline-4-hydroxylase = L-proline-4-hydroxylase (Dactylosporangium salmoneum, UniProt A0ABP5TRQ3); assay: Substrate omission and addition tests on the enzyme reaction (indispensable compounds, promoters, inhibitors); format: biochemical, Dactylosporangium sp. RH1; details: for Relative Activity: 80 mM TES pH 7.5, 30° C., 15 minutes, standard reaction mixture = 100; for activity of the enzyme in the presence of the ion, of the original activity: ion at 1 mM
Protocol: The reaction was initiated by addition of the enzyme and continued for 15 minutes at 30° C. The reaction was stopped by heating the reaction mixture at 100° C. for 2 minutes. […] The reaction was stopped by adding 30 μl of 1 N HCl to the reaction mixture, and the precipitates formed were removed therefrom by centrifugation and filtration.
The HPLC for the determination was carried out under the following conditions: […]

[1] = substrate: O=C(O)CCC(=O)C(=O)O; assay: purified protein, by the assay type; details: other: 80 mM MES buffer (pH 6.5), 4 mM L-ascorbic acid, 2 mM ferrous sulfate
[2] = substrate: O=C(O)[C@@H]1CCCN1; assay: purified protein, by the assay type; details: other: 80 mM MES buffer (pH 6.5), 4 mM L-ascorbic acid, 2 mM ferrous sulfate

## O=C(O)CCC(=O)C(=O)O [2-ketoglutaric acid]
L-proline-4-hydroxylase
  need of the component for the enzyme reaction (in words): indispensable
L-proline-4-hydroxylase; component not added (omitted)
  Relative Activity: 0

## [Cu+2] [Cu^++]
L-proline-4-hydroxylase
  inhibition of the enzyme activity/reaction (in words): inhibit the reaction; also recorded: inhibited
  activity of the enzyme in the presence of the ion, of the original activity: 13%
L-proline-4-hydroxylase; component added at 1 mM
  Relative Activity: 13

## O=C(O)CN(CCN(CC(=O)O)CC(=O)O)CC(=O)O [EDTA, ethylenediaminetetraacetic acid]
L-proline-4-hydroxylase
  inhibition of the enzyme activity/reaction (in words): inhibit the reaction
L-proline-4-hydroxylase; 5 mM EDTA
  activity of the enzyme in the presence of EDTA: no activity of the enzyme was detected
L-proline-4-hydroxylase; component added at 5 mM
  Relative Activity: 0
L-proline-4-hydroxylase; listed as ethylenediaminetetraacetic acid
  inhibition of the enzyme activity/reaction (in words): inhibited

## [Fe+2] [Fe^++]
L-proline-4-hydroxylase
  need of the component for the enzyme reaction (in words): indispensable
L-proline-4-hydroxylase; component not added (omitted)
  Relative Activity: 0

## O=C1O[C@H]([C@@H](O)CO)C(O)=C1O [L-ascorbic acid]
L-proline-4-hydroxylase
  promotion of the enzyme activity/reaction (in words): promotes the reaction
L-proline-4-hydroxylase; component not added (omitted)
  Relative Activity: 51
L-proline-4-hydroxylase; listed as Ascorbic acid
  promotion of the enzyme activity/reaction (in words): promotes the activity of the enzyme
L-proline-4-hydroxylase; listed as L-Ascorbic acid
  promotion of the enzyme activity/reaction (in words): accelerates the activity of the enzyme

## O=C(O)[C@@H]1CCCN1 [L-proline]
L-proline-4-hydroxylase
  need of the component for the enzyme reaction (in words): indispensable
L-proline-4-hydroxylase; component not added (omitted)
  Relative Activity: 0

## [Zn+2] [Zn^++]
L-proline-4-hydroxylase
  inhibition of the enzyme activity/reaction (in words): inhibit the reaction; also recorded: inhibited
  activity of the enzyme in the presence of the ion, of the original activity: 6%
L-proline-4-hydroxylase; component added at 1 mM
  Relative Activity: 6

## Catalase
L-proline-4-hydroxylase; component not added (omitted)
  Relative Activity: 93

B1: L-proline-4-hydroxylase (Dactylosporangium salmoneum) (protein)
chain: MLTPTELKQYREAGYLLIEDGLGPREVDCLRRAAAALYAQDSPDRTLEKDGRTVRAVHGCHRRDPVCRDLVRHPRLLGPAMQILSGDVYVHQFKINAKAPMTGDVWPWHQDYIFWAREDGMDRPHVVNVAVLLDEATHLNGPLLFVPGTHELGLIDVERRAPAGDGDAQWLPQLSADLDYAIDADLLARLTAGRGIESATGPAGSILLFDSRIVHGSGTNMSPHPRGVVLVTYNRTDNALPAQAAPRPEFLAARDATPLVPLPAGFALAQPV
[1]
  Km: 550 µM
[2]
  Km: 270 µM
